Test results published in ChEMBL document CHEMBL4419167, “Compositions and methods for treating respiratory injury or disease” (2018).
Calls of active or inactive are those of the source.

How the values were obtained:
Type in all cases: functional, organism-based
[1] = test system: Mus musculus; assay: Suppression of lung injury in mouse model of Pseudomonas aeruginosa PA103 infection-induced lung injury assessed as improve in lung volume at 100 ug, ip pre-treated before infection
[2] = test system: Mus musculus; assay: Suppression of lung injury in mouse model of Pseudomonas aeruginosa PA103 infection-induced lung injury assessed as reduction in lung resistance at 100 ug, ip pre-treated before infection
[3] = test system: Mus musculus; assay: Suppression of lung injury in mouse model of influenza A virus H1N1 infection-induced lung injury assessed as increase in mouse survival at 30 ug/ml dosed via drinking water
[4] = test system: Mus musculus; assay: Suppression of lung injury in mouse model of Pseudomonas aeruginosa PA103 infection-induced lung injury assessed as reduction in lung elastance at 100 ug, ip pre-treated before infection
[5] = test system: Mus musculus; assay: Suppression of lung injury in mouse model of Pseudomonas aeruginosa PA103 infection-induced lung injury assessed as increase in compliance at 100 ug, ip pre-treated before infection
[6] = test system: Mus musculus; assay: Suppression of lung injury in mouse model of Pseudomonas aeruginosa PA103 infection-induced lung injury assessed as reduction in lavage IL-1beta levels at 100 ug, ip pre-treated before infection
[7] = test system: Mus musculus; assay: Suppression of lung injury in mouse model of Pseudomonas aeruginosa PA103 infection-induced lung injury assessed as reduction in lavage TNFalpha levels at 100 ug, ip pre-treated before infection
[8] = test system: Mus musculus; assay: Suppression of lung injury in mouse model of Pseudomonas aeruginosa PA103 infection-induced lung injury assessed as reduction in lavage IL6 levels at 100 ug, ip pre-treated before infection
[9] = test system: Mus musculus; assay: Suppression of lung injury in mouse model of influenza A virus H1N1 infection-induced lung injury assessed as decrease in lung edema at 30 ug/ml dosed via drinking water
[10] = test system: Mus musculus; assay: Suppression of lung injury in mouse model of influenza A virus H1N1 infection-induced lung injury assessed as decrease in lavage protein concentration at 30 ug/ml dosed via drinking water
[11] = test system: Mus musculus; assay: Suppression of lung injury in mouse model of Pseudomonas aeruginosa PA103 infection-induced lung injury assessed as reduction in lavage protein concentration at 100 ug, ip pre-treated before infection
[12] = test system: Mus musculus; assay: Suppression of lung injury in mouse model of Pseudomonas aeruginosa PA103 infection-induced lung injury assessed as reduction in cell infiltration at 100 ug, ip pre-treated before infection by H and E staining based assay
[13] = test system: Mus musculus; assay: Suppression of lung injury in mouse model of influenza A virus H1N1 infection-induced lung injury assessed as increase in lung compliance at 30 ug/ml dosed via drinking water
[14] = test system: Mus musculus; assay: Suppression of lung injury in mouse model of influenza A virus H1N1 infection-induced lung injury assessed as decrease in lung elastance at 30 ug/ml dosed via drinking water
[15] = test system: Mus musculus; assay: Suppression of lung injury in mouse model of influenza A virus H1N1 infection-induced lung injury assessed as decrease in lavage cell counts at 30 ug/ml dosed via drinking water
[16] = test system: Mus musculus; assay: Suppression of lung injury in mouse model of Pseudomonas aeruginosa PA103 infection-induced lung injury assessed as reduction in lavage cell counts at 100 ug, ip pre-treated before infection
[17] = test system: Mus musculus; assay: Suppression of lung injury in mouse model of influenza A virus H1N1 infection-induced lung injury assessed as decrease in cell infiltration at 30 ug/ml dosed via drinking water by H and E staining based assay
[18] = test system: Mus musculus; assay: Suppression of smoke-induced chronic lung inflammation in mouse assessed as reduction in lavage IFNgamma levels at 100 ug, ip administered as single dose injected after 5 weeks cigarette smoke exposure
[19] = test system: Mus musculus; assay: Suppression of lung injury in mouse model of Pseudomonas aeruginosa PA103 infection-induced pneumonia assessed as reduction in lavage IL6 levels at 30 or 150 ug, ip pre-treated before infection
[20] = test system: Mus musculus; assay: Antiinflammatory activity in C57/BL mouse model of lung transplant acute rejection transplanted with BALB/C mouse left lung assessed as amelioration of neutrophilia infiltration at 5 mg/kg/day, ip for 2 days followed by dosing at 5 mg/kg/day via drinking water for 5 days
[21] = test system: Mus musculus; assay: Antiinflammatory activity in C57/BL mouse model of lung transplant acute rejection transplanted with BALB/C mouse left lung assessed as reduction in cell infiltration in lung at 5 mg/kg/day, ip for 2 days followed by dosing at 5 mg/kg/day via drinking water for 5 days
[22] = test system: Mus musculus; assay: Suppression of dexamethasone-induced muscle atrophy in C57BL mouse assessed as reduction in TRAF6 protein in TA muscle at 0.5 to 5 mg/kg/day dosed via drinking water by immunoblotting analysis
[23] = test system: Mus musculus; assay: Suppression of dexamethasone-induced muscle atrophy in C57BL mouse assessed as reduction in tibialis anterior muscle loss at 0.5 to 5 mg/kg/day dosed via drinking water
[24] = test system: Mus musculus; assay: Suppression of IMQ-induced psoriasis in BALB/c mouse model of skin inflammation assessed as effect on gross appearance at 1 or 5 mg/kg applied topically on daily basis
[25] = test system: Mus musculus; assay: Suppression of IMQ-induced psoriasis in BALB/c mouse model of skin inflammation assessed as reduction in psoriasis index at 1 or 5 mg/kg dosed via drinking water on daily basis
[26] = test system: Mus musculus; assay: Suppression of IMQ-induced psoriasis in BALB/c mouse model of skin inflammation assessed as reduction in psoriasis index at 1 or 5 mg/kg applied topically on daily basis
[27] = test system: Mus musculus; assay: Suppression of smoke-induced chronic lung inflammation in mouse assessed as reduction in lavage protein concentration at 100 ug, ip administered as single dose injected after 5 weeks cigarette smoke exposure
[28] = test system: Mus musculus; assay: Suppression of smoke-induced chronic lung inflammation in mouse assessed as reduction in lavage IL6 levels at 100 ug, ip administered as single dose injected after 5 weeks cigarette smoke exposure
[29] = test system: Mus musculus; assay: Suppression of smoke-induced chronic lung inflammation in mouse assessed as reduction in lavage IL10 levels at 100 ug, ip administered as single dose injected after 5 weeks cigarette smoke exposure
[30] = test system: Mus musculus; assay: Suppression of lung injury in mouse model of Pseudomonas aeruginosa PA103 infection-induced pneumonia assessed as reduction in lavage protein concentration at 30 or 150 ug, ip pre-treated before infection
[31] = test system: Mus musculus; assay: Suppression of IMQ-induced psoriasis in BALB/c mouse model of skin inflammation assessed as reduction in ear thickness at 1 or 5 mg/kg applied topically on daily basis
[32] = test system: Mus musculus; assay: Suppression of smoke-induced chronic lung inflammation in mouse assessed as reduction in lavage IL-1beta levels at 100 ug, ip administered as single dose injected after 5 weeks cigarette smoke exposure
[33] = test system: Mus musculus; assay: Suppression of lung injury in mouse model of Pseudomonas aeruginosa PA103 infection-induced pneumonia assessed as reduction in lavage TNFalpha levels at 30 or 150 ug, ip pre-treated before infection
[34] = test system: Mus musculus; assay: Suppression of lung injury in mouse model of Pseudomonas aeruginosa PA103 infection-induced pneumonia assessed as reduction in cell infiltration at 30 or 150 ug, ip pre-treated before infection by H and E staining based assay
[35] = test system: Mus musculus; assay: Suppression of IMQ-induced psoriasis in BALB/c mouse model of skin inflammation assessed as reduction in spleen weight at 1 or 5 mg/kg applied topically on daily basis
[36] = test system: Mus musculus; assay: Suppression of IMQ-induced psoriasis in BALB/c mouse model of skin inflammation assessed as reduction in spleen weight at 1 or 5 mg/kg dosed via drinking water on daily basis
[37] = test system: Mus musculus; assay: Suppression of lung injury in mouse model of Pseudomonas aeruginosa PA103 infection-induced pneumonia assessed as reduction in lavage IL-1beta levels at 30 or 150 ug, ip pre-treated before infection
[38] = test system: Mus musculus; assay: Suppression of IMQ-induced psoriasis in BALB/c mouse model of skin inflammation assessed as reduction in ear thickness at 1 or 5 mg/kg dosed via drinking water on daily basis
[39] = test system: Mus musculus; assay: Suppression of dexamethasone-induced muscle atrophy in C57BL mouse assessed as prevention of muscle wasting in TA muscle at 0.5 to 5 mg/kg/day dosed via drinking water by H and E staining based assay
[40] = test system: Mus musculus; assay: Suppression of smoke-induced chronic lung inflammation in mouse assessed as reduction in lavage cell counts at 100 ug, ip administered as single dose injected after 5 weeks cigarette smoke exposure
[41] = test system: Mus musculus; assay: Suppression of smoke-induced chronic lung inflammation in mouse assessed as reduction in lavage IL12 levels at 100 ug, ip administered as single dose injected after 5 weeks cigarette smoke exposure
[42] = test system: Mus musculus; assay: Suppression of smoke-induced chronic lung inflammation in mouse assessed as reduction in lavage IL2 levels at 100 ug, ip administered as single dose injected after 5 weeks cigarette smoke exposure
[43] = test system: Mus musculus; assay: Suppression of lung injury in mouse model of Pseudomonas aeruginosa PA103 infection-induced pneumonia assessed as reduction in neutrophil infiltration at 30 or 150 ug, ip pre-treated before infection by May-Grunwald and Geimsa staining based assay
[44] = test system: Mus musculus; assay: Suppression of smoke-induced chronic lung inflammation in mouse assessed as reduction in lavage TNFalpha levels at 100 ug, ip administered as single dose injected after 5 weeks cigarette smoke exposure
[45] = test system: Mus musculus; assay: Suppression of lung injury in mouse model of Pseudomonas aeruginosa PA103 infection-induced pneumonia assessed as reduction in lavage cell counts at 30 or 150 ug, ip pre-treated before infection
[46] = test system: Mus musculus; assay: Suppression of IMQ-induced psoriasis in BALB/c mouse model of skin inflammation assessed as effect on gross appearance at 1 or 5 mg/kg dosed via drinking water on daily basis

Measured: Activity

c1ccc(-c2ccc(CNCCNCc3ccc(-c4ccccn4)cc3)cc2)nc1
active: [1] | [2] | [3] | [4] | [5] | [6] | [7] | [8] | [9] | [10] | [11] | [12] | [13] | [14] | [15] | [16] | [17]

c1cnc(-c2ccc(CNCCNCc3ccc(-c4ncccn4)cc3)cc2)nc1
active: [18] | [19] | [20] | [21] | [22] | [23] | [24] | [25] | [26] | [27] | [28] | [29] | [30] | [31] | [32] | [33] | [34] | [35] | [36] | [37] | [38] | [39] | [40] | [41] | [42] | [43] | [44] | [45] | [46]
